One series deals with Voltage-gated inwardly rectifying potassium channel KCNH2 (Homo sapiens, UniProt Q12809).
Sequence of Voltage-gated inwardly rectifying potassium channel KCNH2 (Q12809 whole entry): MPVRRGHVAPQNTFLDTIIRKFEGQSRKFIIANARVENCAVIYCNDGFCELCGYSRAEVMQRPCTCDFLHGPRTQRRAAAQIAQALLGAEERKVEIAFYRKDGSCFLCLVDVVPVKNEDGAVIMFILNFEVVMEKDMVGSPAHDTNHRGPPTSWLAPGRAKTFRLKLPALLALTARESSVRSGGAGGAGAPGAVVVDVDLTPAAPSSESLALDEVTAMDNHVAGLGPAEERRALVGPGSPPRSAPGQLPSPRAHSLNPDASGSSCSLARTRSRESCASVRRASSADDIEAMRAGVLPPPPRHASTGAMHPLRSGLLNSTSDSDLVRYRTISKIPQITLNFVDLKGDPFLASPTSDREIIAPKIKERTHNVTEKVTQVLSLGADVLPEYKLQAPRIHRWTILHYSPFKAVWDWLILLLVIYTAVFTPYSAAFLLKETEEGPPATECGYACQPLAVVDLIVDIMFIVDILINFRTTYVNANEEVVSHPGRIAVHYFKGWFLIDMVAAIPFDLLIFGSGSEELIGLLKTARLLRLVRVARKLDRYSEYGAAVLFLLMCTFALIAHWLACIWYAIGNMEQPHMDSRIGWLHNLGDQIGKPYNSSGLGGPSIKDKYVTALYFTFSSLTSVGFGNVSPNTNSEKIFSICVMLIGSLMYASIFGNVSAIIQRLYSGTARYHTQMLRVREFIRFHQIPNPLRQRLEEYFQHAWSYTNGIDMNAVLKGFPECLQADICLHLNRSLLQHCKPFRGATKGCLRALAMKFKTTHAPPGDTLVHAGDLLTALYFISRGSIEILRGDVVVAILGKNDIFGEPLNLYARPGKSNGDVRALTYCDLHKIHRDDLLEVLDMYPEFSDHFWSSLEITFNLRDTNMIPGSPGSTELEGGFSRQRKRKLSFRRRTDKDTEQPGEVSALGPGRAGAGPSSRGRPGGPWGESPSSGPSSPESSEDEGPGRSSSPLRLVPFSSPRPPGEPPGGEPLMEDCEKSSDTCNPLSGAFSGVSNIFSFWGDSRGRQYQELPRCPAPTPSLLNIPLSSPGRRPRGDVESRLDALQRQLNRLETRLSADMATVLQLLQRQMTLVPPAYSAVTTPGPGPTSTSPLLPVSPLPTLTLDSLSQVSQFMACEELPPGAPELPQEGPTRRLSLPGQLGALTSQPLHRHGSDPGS
Assay: not given
As to conditions: hek293.
For `CCOC(=O)c1ccc(N)cc1` [BENZOCAINE], the IC50 result is reported as “Not Active” and the Ki result is given as “Not Active”.
Regarding OXALIPLATIN, the IC50 entry is “Not Active” and the Ki result was “Not Active”.
In the case of `CCCCCCCCCc1ccc(O)cc1` [4-NONYLPHENOL], the IC50 entry is “Not Active” and the Ki result is “Not Active”.
Consider `O=C1CCc2cc(OCCCCc3nnnn3C3CCCCC3)ccc2N1` [CILOSTAZOL], for which the IC50 entry is given as “Not Active” and the Ki result is recorded as “Not Active”.

The target in another series is T1, Cytochrome P450 2A6 (Homo sapiens, UniProt P11509). Also: in other assays of this panel Not Active means under 50% inhibition at 10 µM.
T1 sequence (P11509 whole entry): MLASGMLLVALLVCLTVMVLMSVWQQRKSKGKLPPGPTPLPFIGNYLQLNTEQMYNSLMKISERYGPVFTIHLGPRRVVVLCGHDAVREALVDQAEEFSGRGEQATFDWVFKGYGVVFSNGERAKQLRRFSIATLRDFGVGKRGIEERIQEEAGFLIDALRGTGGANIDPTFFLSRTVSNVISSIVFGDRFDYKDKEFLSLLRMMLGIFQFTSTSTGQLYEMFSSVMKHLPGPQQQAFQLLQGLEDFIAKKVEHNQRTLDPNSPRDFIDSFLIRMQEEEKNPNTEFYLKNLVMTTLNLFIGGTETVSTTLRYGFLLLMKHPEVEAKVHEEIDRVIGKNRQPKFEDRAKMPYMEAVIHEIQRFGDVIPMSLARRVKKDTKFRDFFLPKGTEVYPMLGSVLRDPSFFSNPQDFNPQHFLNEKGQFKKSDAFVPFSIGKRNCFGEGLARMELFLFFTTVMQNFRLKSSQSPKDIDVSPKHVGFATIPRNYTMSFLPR
Assay: not given
As to conditions: bti-tn-5b1-4.
In the case of `CCOC(=O)c1ccc(N)cc1` [BENZOCAINE], the IC50 result is “Not Active” and the Ki result is listed as “Not Active”.
Consider OXALIPLATIN, for which the IC50 result is given as “Not Active” and the Ki entry is listed as “Not Active”.
As to `CCCCCCCCCc1ccc(O)cc1` [4-NONYLPHENOL], the IC50 result is listed as “Not Active” and the Ki result is recorded as “Not Active”.
For the molecule `O=C1CCc2cc(OCCCCc3nnnn3C3CCCCC3)ccc2N1` [CILOSTAZOL], the IC50 result is recorded as “Not Active” and the Ki result is given as “Not Active”.

In a further series the target is Cytochrome P450 2C19 (Homo sapiens, UniProt P33261). Also: in other assays of this panel Not Active means under 50% inhibition at 10 µM.
Sequence of Cytochrome P450 2C19 (P33261 whole entry): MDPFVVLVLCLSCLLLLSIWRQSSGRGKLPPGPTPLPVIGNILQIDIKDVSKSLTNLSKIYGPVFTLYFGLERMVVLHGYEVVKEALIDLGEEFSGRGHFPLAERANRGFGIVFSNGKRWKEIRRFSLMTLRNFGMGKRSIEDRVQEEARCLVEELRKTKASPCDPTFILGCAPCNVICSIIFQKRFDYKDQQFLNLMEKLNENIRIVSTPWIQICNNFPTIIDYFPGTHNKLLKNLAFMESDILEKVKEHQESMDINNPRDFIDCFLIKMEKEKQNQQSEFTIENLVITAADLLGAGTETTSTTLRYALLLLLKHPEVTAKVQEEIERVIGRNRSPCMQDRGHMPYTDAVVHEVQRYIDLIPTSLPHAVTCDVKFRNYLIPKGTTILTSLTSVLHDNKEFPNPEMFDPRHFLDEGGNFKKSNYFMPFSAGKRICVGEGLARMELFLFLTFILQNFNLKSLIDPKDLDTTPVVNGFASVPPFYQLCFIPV
Assay: not given
As to conditions: bti-tn-5b1-4.
On to `CCOC(=O)c1ccc(N)cc1` [BENZOCAINE], for which the IC50 entry is recorded as “Not Active” and the Ki result is recorded as “Not Active”.
As for OXALIPLATIN, the IC50 entry is “Not Active” and the Ki entry was “Not Active”.
As to `CCCCCCCCCc1ccc(O)cc1` [4-NONYLPHENOL], the IC50 entry is “Not Active” and the Ki result is on record as “Not Active”.
Turning to `O=C1CCc2cc(OCCCCc3nnnn3C3CCCCC3)ccc2N1` [CILOSTAZOL], the IC50 entry is “Not Active” and the Ki entry is reported as “Not Active”.

The target of the next series is Vasopressin V1a receptor (Homo sapiens, UniProt P37288). Also: in other assays of this panel Not Active means under 50% inhibition at 10 µM.
Sequence of Vasopressin V1a receptor (P37288 whole entry): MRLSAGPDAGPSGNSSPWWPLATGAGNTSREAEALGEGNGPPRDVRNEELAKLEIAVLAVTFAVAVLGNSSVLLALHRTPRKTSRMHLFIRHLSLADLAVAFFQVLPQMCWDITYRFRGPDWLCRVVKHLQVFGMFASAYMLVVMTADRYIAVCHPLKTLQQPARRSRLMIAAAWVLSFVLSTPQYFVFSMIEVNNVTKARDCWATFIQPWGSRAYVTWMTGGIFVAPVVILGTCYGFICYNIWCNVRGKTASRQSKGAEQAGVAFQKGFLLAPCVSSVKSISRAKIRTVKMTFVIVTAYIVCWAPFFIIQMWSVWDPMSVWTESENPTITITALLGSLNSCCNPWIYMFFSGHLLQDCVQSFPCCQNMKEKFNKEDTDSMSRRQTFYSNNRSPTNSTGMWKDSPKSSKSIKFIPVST
Assay: not given
It is filed as cell membranes, Membrane. As to conditions: hek293.
`CCOC(=O)c1ccc(N)cc1` [BENZOCAINE]: the IC50 result is “Not Active”.
As for OXALIPLATIN, the IC50 entry is reported as “Not Active” and the Ki entry is reported as “Not Active”.
As to `CCCCCCCCCc1ccc(O)cc1` [4-NONYLPHENOL], the IC50 result was “Not Active”.
In the case of `O=C1CCc2cc(OCCCCc3nnnn3C3CCCCC3)ccc2N1` [CILOSTAZOL], the IC50 entry was “Not Active”.

For the next series, the target named is T2, Thromboxane-A synthase (Homo sapiens, UniProt P24557).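 Also: enzyme inhibition assay with PGH2 supplied as substrate; in other assays of this panel Not Active means under 50% inhibition at 10 µM.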
T2 sequence (P24557 whole entry): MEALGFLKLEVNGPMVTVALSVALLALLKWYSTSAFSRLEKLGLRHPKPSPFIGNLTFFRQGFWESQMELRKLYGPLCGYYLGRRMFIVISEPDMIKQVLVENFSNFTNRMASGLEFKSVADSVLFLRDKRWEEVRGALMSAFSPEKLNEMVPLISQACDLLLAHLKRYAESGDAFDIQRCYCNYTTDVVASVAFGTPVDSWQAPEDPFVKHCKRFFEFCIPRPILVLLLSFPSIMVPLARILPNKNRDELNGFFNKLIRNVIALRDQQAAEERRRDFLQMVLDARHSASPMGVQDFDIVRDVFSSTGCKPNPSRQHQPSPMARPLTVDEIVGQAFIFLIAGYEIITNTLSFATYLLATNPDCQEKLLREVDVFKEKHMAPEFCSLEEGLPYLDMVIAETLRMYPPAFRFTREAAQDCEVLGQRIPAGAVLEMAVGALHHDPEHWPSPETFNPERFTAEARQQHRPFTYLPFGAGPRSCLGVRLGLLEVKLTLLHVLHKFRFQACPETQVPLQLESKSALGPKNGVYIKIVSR
Nature of the series: biochemical. As to conditions: platelet. It is filed as tissue-based, Platelet.
Consider `CCOC(=O)c1ccc(N)cc1` [BENZOCAINE], for which the IC50 entry is on record as “Not Active”.
With OXALIPLATIN, the IC50 result was “Not Active” and the Ki result was “Not Active”.
With `CCCCCCCCCc1ccc(O)cc1` [4-NONYLPHENOL], the IC50 entry is reported as “Not Active”.
Regarding `O=C1CCc2cc(OCCCCc3nnnn3C3CCCCC3)ccc2N1` [CILOSTAZOL], the IC50 result is listed as “Not Active”.

The target of a further series is T3, Cytochrome P450 1A2 (Homo sapiens, UniProt P05177). Also: in other assays of this panel Not Active means under 50% inhibition at 10 µM.
T3 sequence (P05177 whole entry): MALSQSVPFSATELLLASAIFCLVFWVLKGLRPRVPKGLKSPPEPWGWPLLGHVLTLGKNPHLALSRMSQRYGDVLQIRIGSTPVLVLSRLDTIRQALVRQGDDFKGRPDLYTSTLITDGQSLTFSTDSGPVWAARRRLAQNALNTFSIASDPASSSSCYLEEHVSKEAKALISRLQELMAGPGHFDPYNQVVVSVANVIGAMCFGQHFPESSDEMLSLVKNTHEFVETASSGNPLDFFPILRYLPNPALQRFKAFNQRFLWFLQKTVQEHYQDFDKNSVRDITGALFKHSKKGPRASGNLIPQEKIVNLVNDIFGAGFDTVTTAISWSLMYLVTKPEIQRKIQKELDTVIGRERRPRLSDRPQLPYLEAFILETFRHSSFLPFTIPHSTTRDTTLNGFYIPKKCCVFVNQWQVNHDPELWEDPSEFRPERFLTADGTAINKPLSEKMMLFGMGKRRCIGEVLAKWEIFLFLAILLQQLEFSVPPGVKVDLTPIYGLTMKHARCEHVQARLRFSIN
Assay: not given
As to conditions: bti-tn-5b1-4.
Consider `CCOC(=O)c1ccc(N)cc1` [BENZOCAINE], for which the IC50 entry is listed as “Not Active” and the Ki result was “Not Active”.
OXALIPLATIN: the IC50 result was “Not Active” and the Ki entry was “Not Active”.
Turning to `CCCCCCCCCc1ccc(O)cc1` [4-NONYLPHENOL], the IC50 result was “Not Active” and the Ki entry is “Not Active”.
As for `O=C1CCc2cc(OCCCCc3nnnn3C3CCCCC3)ccc2N1` [CILOSTAZOL], the IC50 result is reported as “Not Active” and the Ki entry was “Not Active”.

The target of the next series is Carbonic anhydrase 2 (Homo sapiens, UniProt P00918). Nature of the series: DRUGMATRIX: Carbonic Anhydrase II enzyme inhibition (substrate: 4-Nitrophenyl acetate (4-NPA)). It is filed as tissue-based, Erythrocyte. Conditions: erythrocyte; Not Active = under 50% inhibition at 10 µM.
For the molecule `CCOC(=O)c1ccc(N)cc1` [BENZOCAINE], the IC50 entry is given as “Not Active”.
In the case of OXALIPLATIN, the IC50 result is “Not Active” and the Ki result is reported as “Not Active”.
`CCCCCCCCCc1ccc(O)cc1` [4-NONYLPHENOL]: the IC50 entry is “Not Active”.
For `O=C1CCc2cc(OCCCCc3nnnn3C3CCCCC3)ccc2N1` [CILOSTAZOL], the IC50 result is on record as “Not Active”.

In the next series the target is Cytochrome P450 3A4 (Homo sapiens, UniProt P08684). Also: in other assays of this panel Not Active means under 50% inhibition at 10 µM.
Sequence of Cytochrome P450 3A4 (P08684 whole entry): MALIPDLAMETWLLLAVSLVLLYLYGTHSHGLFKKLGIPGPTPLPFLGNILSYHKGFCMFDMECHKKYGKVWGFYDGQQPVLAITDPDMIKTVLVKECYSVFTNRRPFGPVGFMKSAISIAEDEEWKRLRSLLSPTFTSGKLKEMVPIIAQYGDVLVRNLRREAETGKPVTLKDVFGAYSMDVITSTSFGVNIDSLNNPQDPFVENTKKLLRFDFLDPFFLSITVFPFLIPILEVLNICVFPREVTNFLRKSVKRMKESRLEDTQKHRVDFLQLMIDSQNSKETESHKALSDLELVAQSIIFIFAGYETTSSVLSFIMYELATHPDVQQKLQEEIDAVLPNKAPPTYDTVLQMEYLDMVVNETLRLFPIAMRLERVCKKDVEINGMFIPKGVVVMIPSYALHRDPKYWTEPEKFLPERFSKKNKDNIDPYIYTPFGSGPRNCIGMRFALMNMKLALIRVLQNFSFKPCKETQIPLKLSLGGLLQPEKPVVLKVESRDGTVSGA
Assay: not given
As to conditions: bti-tn-5b1-4.
Turning to `CCOC(=O)c1ccc(N)cc1` [BENZOCAINE], the IC50 result is given as “Not Active” and the Ki result is on record as “Not Active”.
On to OXALIPLATIN, for which the IC50 result was “Not Active” and the Ki result is on record as “Not Active”.
In the case of `CCCCCCCCCc1ccc(O)cc1` [4-NONYLPHENOL], the IC50 result is reported as “Not Active” and the Ki entry is on record as “Not Active”.
For `O=C1CCc2cc(OCCCCc3nnnn3C3CCCCC3)ccc2N1` [CILOSTAZOL], the IC50 entry was “Not Active” and the Ki result is “Not Active”.

In another series the target is Acetylcholinesterase (Homo sapiens, UniProt P22303). In words: DRUGMATRIX: Acetylcholinesterase enzyme inhibition (substrate: acetylthiocholine). Conditions: hek293; Not Active = under 50% inhibition at 10 µM. Type of series: cell-based, HEK293.
Sequence of Acetylcholinesterase (P22303 whole entry): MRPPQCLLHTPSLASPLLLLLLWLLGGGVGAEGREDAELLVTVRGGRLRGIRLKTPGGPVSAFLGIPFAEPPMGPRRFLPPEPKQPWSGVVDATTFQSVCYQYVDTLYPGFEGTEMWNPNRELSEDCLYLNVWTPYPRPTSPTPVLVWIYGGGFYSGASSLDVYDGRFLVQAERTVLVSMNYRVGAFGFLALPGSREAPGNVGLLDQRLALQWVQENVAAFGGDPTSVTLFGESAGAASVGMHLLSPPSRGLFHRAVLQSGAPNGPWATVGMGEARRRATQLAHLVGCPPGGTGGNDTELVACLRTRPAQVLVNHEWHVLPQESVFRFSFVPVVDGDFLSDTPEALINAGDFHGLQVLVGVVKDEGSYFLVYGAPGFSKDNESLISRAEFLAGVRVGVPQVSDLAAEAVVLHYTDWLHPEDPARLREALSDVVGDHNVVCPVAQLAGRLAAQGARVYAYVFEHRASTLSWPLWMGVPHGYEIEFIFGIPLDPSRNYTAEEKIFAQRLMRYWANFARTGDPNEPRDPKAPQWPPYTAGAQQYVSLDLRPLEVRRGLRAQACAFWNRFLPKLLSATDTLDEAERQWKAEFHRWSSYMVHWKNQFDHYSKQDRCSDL
Turning to `CCOC(=O)c1ccc(N)cc1` [BENZOCAINE], the IC50 entry was “Not Active”.
Regarding OXALIPLATIN, the IC50 entry is on record as “Not Active” and the Ki entry was “Not Active”.
For the molecule `CCCCCCCCCc1ccc(O)cc1` [4-NONYLPHENOL], the IC50 entry is “Not Active”.
On to `O=C1CCc2cc(OCCCCc3nnnn3C3CCCCC3)ccc2N1` [CILOSTAZOL], for which the IC50 entry is recorded as “Not Active”.

Another series deals with T4, Neuropeptide Y receptor type 2 (Homo sapiens, UniProt P49146).
T4 sequence (P49146 whole entry): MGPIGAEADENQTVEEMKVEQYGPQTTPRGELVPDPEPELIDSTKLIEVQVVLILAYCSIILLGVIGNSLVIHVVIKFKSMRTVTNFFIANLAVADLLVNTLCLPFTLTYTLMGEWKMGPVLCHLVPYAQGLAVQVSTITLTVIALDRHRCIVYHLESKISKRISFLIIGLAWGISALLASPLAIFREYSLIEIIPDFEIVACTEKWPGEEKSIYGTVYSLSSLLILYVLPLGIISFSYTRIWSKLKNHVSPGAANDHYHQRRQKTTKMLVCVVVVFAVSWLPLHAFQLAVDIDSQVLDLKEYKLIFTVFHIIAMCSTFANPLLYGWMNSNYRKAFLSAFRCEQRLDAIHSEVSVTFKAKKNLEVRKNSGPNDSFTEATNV
Assay: not given
As to conditions: kan-ts. It is filed as cell membranes, Membrane.
`CCOC(=O)c1ccc(N)cc1` [BENZOCAINE]: the IC50 result was “Not Active”.
For OXALIPLATIN, the IC50 result is reported as “Not Active” and the Ki result was “Not Active”.
Turning to `CCCCCCCCCc1ccc(O)cc1` [4-NONYLPHENOL], the IC50 entry is recorded as “Not Active”.
Regarding `O=C1CCc2cc(OCCCCc3nnnn3C3CCCCC3)ccc2N1` [CILOSTAZOL], the IC50 result is listed as “Not Active”.

(Values after ChEMBL document CHEMBL1909046, “DrugMatrix in vitro pharmacology data”.)
